What was measured:
HeLa lysate = test: Phosphatase activity of HeLa cell lysate (32P-MLC20); format: biochemical, human; conditions: HeLa lysate in 300-fold dilution; 1 µM 32P-MLC20; mean ± SD
Protocol: (§1) Protein phosphatase activity of either skeletal muscle PP1c or PP2Ac (1.9–2.2 nM), or rPP1cα or rPP1cδ (2.71–3.72 nM), or FLAG-MYPT1-PP1c (∼9 nM) was assayed at 30 °C in absence or presence of polyphenol compounds (0.1–100 µM) in 20 mM Tris/HCl (pH 7.4), 0.1% 2-mercaptoethanol (30 µL). The purified phosphatase samples or HeLa lysates in 300-fold dilution (1.8–3.6 µg/ml) in the presence or absence of 2 µM I2 were preincubated with increasing concentration of the polyphenol compounds (0–100 µM) for 10 min then the reaction was started by the addition of 1 µM ^32P-MLC20 and incubated for 10 min. Polyphenol-treated HeLa cells were washed then lysed in 50 mM Tris/HCl (pH 8.0), 150 mM NaCl, 1% (V/V) Triton X-100, 0.15% (w/v) protease inhibitor cocktail. The phosphatase activity was assayed with 1 µM ^32P-MLC20 for 30 s in 3-fold final dilution (0.24–0.43 mg/ml). The reactions were terminated by the addition of 200 µL of 10% trichloroacetic acid and 200 µL of 6 mg/mL BSA solution. The samples were centrifuged for 3 min at 10,000 rpm and the supernatants (370 µL) were transferred into scintillation vials and the radioactivity of the released ^32Pi was determined in Tri-Carb 2800TR scintillation counter.
(§2) The ellagitannins (Figure 1) assayed on the activity of PP1c or PP2Ac in this study are similar to PGG in composition, but they differ structurally in two important aspects: (i) all of them include hexahydroxydiphenoyl unit linked in various positions, except for pedunculagin which includes two of these linkages; (ii) tellimagrandin I, pedunculagin, and praecoxin B have free glycosidic hydroxyls, while GHG has an unmodified hydroxyl at position 3 of the glucopyranose ring. […] Inhibition of the phosphatase activity by ellagitannins in HeLa cell lysate was also assessed. First, we determined the activity of PP1 and PP2A in the lysates using I2 to inhibit PP1, and low concentration of OA (2 nM) to suppress PP2A specifically, in order to determine the contribution of PP1 and PP2A to the phosphatase activity of lysates (Figure 2(E)).
(§3) Figure 2. The effect of ellagitannins on the activity of PP1 and PP2A. Ellagitannins (0.1–100 µM) were preincubated with the phosphatase samples for 10 min and the phosphatase activity was determined in triplicates with 1 µM ^32P-MLC20 substrate as described in “Materials and methods” section. […] The effect of tellimagrandin I on the activity of rPP1cα (^) and rPP1cδ (●) (C), or FLAG-MYPT1-PP1cδ (▼) (D), or on the phosphatase activity of HeLa lysate in the presence of I2 (□) (F). The effect of I2 and OA on the phosphatase activity of HeLa lysate (E). Phosphatase activity in the absence of ellagitannins, I2 or OA was taken as 100%. Data are means ± SD (n = 3–5).

PP1c = test: Protein phosphatase assay with 32P-MLC20, native PP1c; format: biochemical; conditions: native PP1c from rabbit skeletal muscle; 1 µM 32P-MLC20; 10 min preincubation; mean ± SD
Protocol: as §1, §2, §3

PP2Ac = test: Protein phosphatase assay with 32P-MLC20, native PP2Ac; format: biochemical; conditions: native PP2Ac from rabbit skeletal muscle; 1 µM 32P-MLC20; 10 min preincubation; mean ± SD
Protocol: as §1, §2, §3

rPP1cα [1] = molecular target: T1, rPP1cα (Homo sapiens, UniProt P62136); test: Protein phosphatase assay, recombinant rPP1cα; format: biochemical; conditions: purified recombinant FLAG-tagged PP1cα
T1 construct: FLAG; made in house
Protocol: as §1, with “The reactions were terminated by the addition of 200 µL of 10% trichloroacetic acid and 200 µL of 6 mg/mL BSA solution.” left out
(§4) Figure 2. […] Ellagitannins (0.1–100 µM) were preincubated with the phosphatase samples for 10 min and the phosphatase activity was determined in triplicates with 1 µM ^32P-MLC20 substrate as described in “Materials and methods” section. […]

rPP1cα [2] = molecular target: T1, rPP1cα; test: Isothermal titration calorimetry (ITC); format: binding; conditions: 25 °C
Protocol: Isothermal titration calorimetry (ITC) experiments were carried out at 25 °C by a MicroCal ITC200 instrument. The assay buffer contains 25 mM Tris/HCl (pH 8.0), 100 mM NaCl, and 1 mM DTT. rPP1cα was dialysed in the assay buffer two times for two hours freshly prior to measurements and diluted to 5–10 µM then transferred into the sample cell of the calorimeter. Tellimagrandin I was diluted to 60–100 µM in the assay buffer and measured into the syringe. 18 times 2 µL ligand was then injected into the cell at a stirring rate of 300 rpm. The reference power was 5 µcal/sec and the assay buffer was loaded in the reference cell. The titration data were analysed with MicroCal ITC-Origin software using one sets of site model to obtain binding parameters of ligand-protein interaction.
(§5) Figure 3. […] The changes in either, the intrinsic fluorescence of unlabelled rPP1cα upon binding to tellimagrandin I and PGG, or changes in fluorescent signal from rPP1cα extrinsically labelled with NT647 dye upon binding with EGCG, were determined at a range of concentration of polyphenols, and the fractions bound are presented. Data points are means ± SD (n = 3).

rPP1cδ [3] = molecular target: T2, rPP1cδ (Homo sapiens, UniProt P62140); test: Protein phosphatase assay, recombinant rPP1cδ; format: biochemical; conditions: purified recombinant hexahistidine-tagged PP1cδ
T2 construct: hexahistidine; made in house
Protocol: as §1, with “The reactions were terminated by the addition of 200 µL of 10% trichloroacetic acid and 200 µL of 6 mg/mL BSA solution.” left out
as §4

[4] = tested on: mouse cortical synaptosomes; test: KCl induced exocytosis of cortical synaptosomes (FM 2-10 dye); format: cell-based; conditions: 30 mM KCl; FM 2-10 fluorescence; 45 min treatment
Protocol: (§6) Preparation of synaptosomes from murine brain cortex was carried out as described previously. Functional synaptosomes were kept in Krebs buffer (118 mM NaCl, 5 mM KCl, 25 mM NaHCO3, 1 mM MgCl2, 10 mM D-glucose, pH 7.4). After preparation, synaptosomes were treated with either tellimagrandin I or mahtabin A in 1, 10 or 100 µM final concentrations, or with 10 µM tautomycetin (TMC) for 45 min at 30 °C. After the treatments synaptosomes were applied for exocytosis assay or were lysed and the protein lysates were subjected to Western blot. For exocytosis assay an already established protocol[25] was used. FM 2–10 water-soluble styryl dye was incorporated first into the outer leaflet of synaptosome membrane, then into the synaptosomes. Exocytosis was induced by addition of 30 mM KCl to the synaptosomes. The fluorescent intensity of FM 2–10 styryl dye negatively correlated with the extent of synatposomal exocytosis and was measured by Fluoroskan FL (excitation: 488 nm, emission: 540 nm). Western blot of synaptosome proteins was carried out as described previously[24]^,[25].
Figure 5. […] E: Representative Western blot with anti- SNAP-25^pThr138 specific antibody. F: Relative changes in the amount of SNAP-25^pThr138 determined by densitometry of the Western blots normalised on the bands obtained for the loading controls. Data are means ± SD (n = 3). […]

PP2A = test: Phosphatase activity of HeLa lysate in the presence of I2 (activity due to PP2A); format: biochemical, human; conditions: PP1 suppressed by 2 µM I2; up to the highest concentration applied (100 µM)
Protocol: as §1, with “Polyphenol-treated HeLa cells were washed then lysed in 50 mM Tris/HCl (pH 8.0), 150 mM NaCl, 1% (V/V) Triton X-100, 0.15% (w/v) protease inhibitor cocktail. The phosphatase activity was assayed with 1 µM ^32P-MLC20 for 30 s in 3-fold final dilution (0.24–0.43 mg/ml). The reactions were terminated by the addition of 200 µL of 10% trichloroacetic acid and 200 µL of 6 mg/mL BSA solution.” left out
as §2, with “First, we determined the activity of PP1 and PP2A in the lysates using I2 to inhibit PP1, and low concentration of OA (2 nM) to suppress PP2A specifically, in order to determine the contribution of PP1 and PP2A to the phosphatase activity of lysates (Figure 2(E)).” left out

FLAG-MYPT1-PP1cδ complex = molecular target: T3, FLAG-MYPT1-PP1cδ complex (Homo sapiens, UniProt P62140); test: Protein phosphatase assay, myosin phosphatase holoenzyme; format: biochemical; conditions: holoenzyme ~9 nM
T3 construct: its associated proteins (such as PP1cδ) were isolated from cell lysates; expressed in transfected cells; host or cells: tsA201 cells
Protocol: as §1, with “The reactions were terminated by the addition of 200 µL of 10% trichloroacetic acid and 200 µL of 6 mg/mL BSA solution.” left out
as §4

HeLa cells [5] = test: HeLa cell viability, Alamar-blue assay; format: cell-based, human; conditions: 24 h incubation, serum free; 0-50 µM tested
Protocol: HeLa cells and tsa201 cells were cultured as recommended by the supplier. Prior to treatments HeLa cells were serum starved in MEM medium supplemented with 2 mM L-glutamine for 17 h. For phosphatase activity assay cells were treated with increasing concentration of polyphenol compounds (1–50 µM) for 1 h. To assess cell viability by Alamar-blue assay serum starved cells were treated with ellagitannins (1–50 µM) for 24 h in serum free MEM medium. The media was exchanged for resazurin (20 µM) containing serum free media and the cells were incubated for 2 h to enhance resorufin formation by the viable cells. The emission of resorufin was measured by a fluorimeter at 620 nm.
Figure 4. Distinct influence of ellagitannins on the survival and phosphatase activity of HeLa cells. The effect of tellimagrandin I and mahtabin A was assayed on the survival (A) and the phosphatase activity (B) of HeLa cells in 0–50 µM concentration range as detailed in Materials and methods. The cell survival and the phosphatase activity in the absence of ellagitannins were taken as 100%. Data represent means ± SD (n = 3). ANOVA *p < .05, **p < .01, ***p < .001, n.s.: not significant.

HeLa cells [6] = test: Phosphatase activity of polyphenol-treated HeLa cells; format: cell-based, human; conditions: 1 h incubation; 0-50 µM tested
Protocol: as §1
HeLa cells and tsa201 cells were cultured as recommended by the supplier. […] The emission of resorufin was measured by a fluorimeter at 620 nm. […]

rPP1cδ [7] = molecular target: T2, rPP1cδ; test: Surface plasmon resonance (SPR); format: binding; conditions: rPP1cδ immobilised on CM5 chip; 1:1 interaction model
rPP1cα [8] = molecular target: T1, rPP1cα; test: Microscale thermophoresis (MST); format: binding
Protocol: as §5

SNAP-25^Thr138 = test: Phosphorylation of SNAP-25 Thr138 in cortical synaptosomes (Western blot); format: cell-based, mouse; conditions: synaptosomes treated 45 min at 30 °C; ellagitannins 1-100 µM, TMC 10 µM
Protocol: as §6
Figure 5. […] E: Representative Western blot with anti- SNAP-25^pThr138 specific antibody. F: Relative changes in the amount of SNAP-25^pThr138 determined by densitometry of the Western blots normalised on the bands obtained for the loading controls. Data are means ± SD (n = 3). ANOVA *p < .05, **p < .01, ***p < .001, n.s.: not significant.

T1 sequence (P62136 whole entry): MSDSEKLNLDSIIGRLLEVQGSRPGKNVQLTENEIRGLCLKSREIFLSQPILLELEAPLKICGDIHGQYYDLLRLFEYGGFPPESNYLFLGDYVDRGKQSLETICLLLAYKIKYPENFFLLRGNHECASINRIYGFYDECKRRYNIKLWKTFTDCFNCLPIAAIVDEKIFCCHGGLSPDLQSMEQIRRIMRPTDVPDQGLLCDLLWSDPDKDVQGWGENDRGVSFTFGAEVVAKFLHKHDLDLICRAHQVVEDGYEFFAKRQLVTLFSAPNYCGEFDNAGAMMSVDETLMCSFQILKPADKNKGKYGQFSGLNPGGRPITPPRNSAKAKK
T2 sequence (P62140 whole entry): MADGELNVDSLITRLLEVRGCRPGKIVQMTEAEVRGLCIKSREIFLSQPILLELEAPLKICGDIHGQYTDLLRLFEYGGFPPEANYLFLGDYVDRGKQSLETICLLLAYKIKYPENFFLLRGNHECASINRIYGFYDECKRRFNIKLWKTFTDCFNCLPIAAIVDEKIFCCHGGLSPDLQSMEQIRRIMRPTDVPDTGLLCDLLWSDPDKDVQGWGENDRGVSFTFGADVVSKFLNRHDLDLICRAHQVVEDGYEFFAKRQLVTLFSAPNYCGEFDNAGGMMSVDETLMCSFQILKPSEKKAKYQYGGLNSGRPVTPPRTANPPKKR
T3 sequence (P62140 2-327 limits assumed): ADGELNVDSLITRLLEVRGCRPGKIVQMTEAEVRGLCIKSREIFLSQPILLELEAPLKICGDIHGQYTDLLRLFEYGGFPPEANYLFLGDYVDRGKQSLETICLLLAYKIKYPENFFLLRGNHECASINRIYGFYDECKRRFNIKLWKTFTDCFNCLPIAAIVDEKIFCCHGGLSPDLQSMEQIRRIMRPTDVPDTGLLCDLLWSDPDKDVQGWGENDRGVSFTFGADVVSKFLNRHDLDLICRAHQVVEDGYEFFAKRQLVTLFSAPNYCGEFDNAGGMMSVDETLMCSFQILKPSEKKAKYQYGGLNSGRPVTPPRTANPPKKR
T3 sequence (O14974 whole entry partner): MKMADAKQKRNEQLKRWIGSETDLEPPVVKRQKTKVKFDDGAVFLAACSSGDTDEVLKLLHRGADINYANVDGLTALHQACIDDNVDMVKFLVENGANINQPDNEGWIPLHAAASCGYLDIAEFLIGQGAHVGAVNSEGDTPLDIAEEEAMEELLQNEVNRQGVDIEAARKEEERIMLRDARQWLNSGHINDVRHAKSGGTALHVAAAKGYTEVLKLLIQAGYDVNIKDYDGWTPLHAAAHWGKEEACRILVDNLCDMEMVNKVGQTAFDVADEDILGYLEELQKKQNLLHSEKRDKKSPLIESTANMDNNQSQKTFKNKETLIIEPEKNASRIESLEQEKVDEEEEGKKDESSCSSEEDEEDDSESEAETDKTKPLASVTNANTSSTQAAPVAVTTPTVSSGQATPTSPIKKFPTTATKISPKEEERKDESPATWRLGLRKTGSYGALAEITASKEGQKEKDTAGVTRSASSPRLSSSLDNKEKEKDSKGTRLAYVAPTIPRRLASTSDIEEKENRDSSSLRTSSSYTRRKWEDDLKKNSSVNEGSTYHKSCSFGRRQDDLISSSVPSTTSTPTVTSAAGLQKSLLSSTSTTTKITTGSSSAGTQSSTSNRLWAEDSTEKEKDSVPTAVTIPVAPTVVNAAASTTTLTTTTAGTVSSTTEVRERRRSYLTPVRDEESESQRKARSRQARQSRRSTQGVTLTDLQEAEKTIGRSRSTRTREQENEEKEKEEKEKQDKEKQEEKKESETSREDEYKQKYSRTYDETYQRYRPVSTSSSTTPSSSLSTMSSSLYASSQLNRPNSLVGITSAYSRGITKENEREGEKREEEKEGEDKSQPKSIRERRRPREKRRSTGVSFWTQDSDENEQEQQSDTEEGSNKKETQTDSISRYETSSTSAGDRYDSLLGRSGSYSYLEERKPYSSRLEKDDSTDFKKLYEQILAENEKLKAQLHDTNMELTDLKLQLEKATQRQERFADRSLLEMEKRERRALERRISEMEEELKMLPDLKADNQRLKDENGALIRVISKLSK

O=C(OC[C@H]1OC(O)[C@@H]2OC(=O)c3cc(O)c(O)c(O)c3-c3c(cc(O)c(O)c3O)C(=O)O[C@H]2[C@@H]1OC(=O)c1cc(O)c(O)c(O)c1)c1cc(O)c(O)c(O)c1 (stereo partly shown) [praecoxin B]
IC50 (HeLa lysate): 6970 ± 1120 nM | IC50 (PP1c): 790 ± 110 nM | IC50 (PP2Ac): 63900 ± 5520 nM

O=C(O[C@H]1[C@@H]2OC(=O)c3cc(O)c(O)c(O)c3-c3c(cc(O)c(O)c3O)C(=O)OC[C@H]2OC(O)[C@@H]1OC(=O)c1cc(O)c(O)c(O)c1)c1cc(O)c(O)c(O)c1 (stereo partly shown) [tellimagrandin I]
IC50 (rPP1cα [1]): 230 ± 50 nM | Ka (ITC) (rPP1cα [2]): 4.68 ± 1.02x10^6 M^−1 | S (ITC) (rPP1cα [2]): 0.0036 kcal/mol/K | N (ITC) (rPP1cα [2]; binding stoichiometry): 1.16 ± 0.03 | Kd (rPP1cα [2]; one sets of site model): 230 nM | IC50 (HeLa lysate): 4460 ± 950 nM | IC50 (rPP1cδ [3]): 130 ± 20 nM | Effect on KCl induced synaptosomal exocytosis [4]: without any influence | Inhibition of phosphatase activity due to PP2A in HeLa lysate (PP2A): slightly | IC50 (FLAG-MYPT1-PP1cδ complex): 110 ± 20 nM | Effect on viability (survival) of HeLa cells (HeLa cells [5]): suppressed the viability of HeLa cells dramatically | Effect on phosphatase activity of HeLa cells (HeLa cells [6]): partially reduced the phosphatase activity | IC50 (PP1c): 200 ± 20 nM | IC50 (PP2Ac): 19500 ± 8600 nM | Kd (rPP1cδ [7]): 310 nM | Kd (rPP1cα [8]; unlabelled rPP1cα, intrinsic fluorescence (NT.LabelFree)): 1780 ± 590 nM | Effect on phosphorylation level of SNAP-25^Thr138 (SNAP-25^Thr138): had no any effect

epigallocatechin-3-gallate [EGCG]
Kd (rPP1cα [8]; rPP1cα labelled with NT-647 (NT.115)): 8200 ± 4300 nM

tautomycetin [TMC, reference compound]
Effect on phosphorylation level of SNAP-25^Thr138 (SNAP-25^Thr138): increased the amount of SNAP-25^pThr138
